Data on one compound can be found in ChEMBL document CHEMBL1909046, “DrugMatrix in vitro pharmacology data”.

The term IC50 denotes the concentration at which inhibition is half-maximal. For orientation: Ki means the dissociation constant of the complex between target and ligand, obtained from inhibition or displacement.

Sequence of D(3) dopamine receptor (P35462 whole entry): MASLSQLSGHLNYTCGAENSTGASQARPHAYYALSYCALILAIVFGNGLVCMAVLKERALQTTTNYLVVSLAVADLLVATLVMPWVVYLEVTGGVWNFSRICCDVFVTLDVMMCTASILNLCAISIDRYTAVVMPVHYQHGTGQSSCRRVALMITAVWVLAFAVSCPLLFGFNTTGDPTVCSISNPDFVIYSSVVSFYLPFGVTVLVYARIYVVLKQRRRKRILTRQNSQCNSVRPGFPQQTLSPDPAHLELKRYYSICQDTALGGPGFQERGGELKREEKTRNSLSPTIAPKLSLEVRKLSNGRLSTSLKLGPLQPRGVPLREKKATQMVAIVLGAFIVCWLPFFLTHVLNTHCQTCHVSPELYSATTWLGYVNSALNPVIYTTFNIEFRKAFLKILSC
Sequence of D(1A) dopamine receptor (P21728 whole entry): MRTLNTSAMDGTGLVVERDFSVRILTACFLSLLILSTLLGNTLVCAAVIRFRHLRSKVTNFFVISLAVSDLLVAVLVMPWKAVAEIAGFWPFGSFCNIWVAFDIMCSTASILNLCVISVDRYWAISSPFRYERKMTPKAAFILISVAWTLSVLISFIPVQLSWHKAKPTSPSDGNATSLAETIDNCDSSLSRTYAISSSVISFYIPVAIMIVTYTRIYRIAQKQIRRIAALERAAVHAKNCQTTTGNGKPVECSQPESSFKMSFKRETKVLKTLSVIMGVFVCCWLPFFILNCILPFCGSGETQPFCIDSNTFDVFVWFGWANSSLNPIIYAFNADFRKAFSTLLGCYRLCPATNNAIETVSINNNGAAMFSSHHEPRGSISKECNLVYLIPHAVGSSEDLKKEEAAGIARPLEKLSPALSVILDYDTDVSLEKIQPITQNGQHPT

The first test addresses T1, Polyunsaturated fatty acid lipoxygenase ALOX15 (Oryctolagus cuniculus, UniProt P12530).
T1 sequence (P12530 whole entry): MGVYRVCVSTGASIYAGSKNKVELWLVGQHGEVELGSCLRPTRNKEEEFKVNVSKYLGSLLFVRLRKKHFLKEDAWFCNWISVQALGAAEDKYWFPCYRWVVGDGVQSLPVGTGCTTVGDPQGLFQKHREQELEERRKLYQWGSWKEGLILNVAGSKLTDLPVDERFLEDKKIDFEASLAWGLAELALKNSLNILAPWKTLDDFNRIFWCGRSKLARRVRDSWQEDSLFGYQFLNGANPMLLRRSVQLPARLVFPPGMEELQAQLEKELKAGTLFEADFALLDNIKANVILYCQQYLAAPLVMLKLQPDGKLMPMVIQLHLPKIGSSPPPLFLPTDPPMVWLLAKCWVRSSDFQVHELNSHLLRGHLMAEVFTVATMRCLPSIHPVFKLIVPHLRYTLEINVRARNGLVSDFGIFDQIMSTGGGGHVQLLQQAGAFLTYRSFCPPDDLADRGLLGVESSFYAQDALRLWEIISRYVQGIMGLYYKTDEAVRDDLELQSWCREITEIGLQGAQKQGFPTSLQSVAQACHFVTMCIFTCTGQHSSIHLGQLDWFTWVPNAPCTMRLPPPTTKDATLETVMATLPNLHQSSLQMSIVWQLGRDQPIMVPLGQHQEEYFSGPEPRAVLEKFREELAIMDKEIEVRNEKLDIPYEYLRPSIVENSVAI
The test can be described thus: biochemical. The test is classed as tissue-based, Reticulocytes. To be noted: reticulocytes.
As for `CC1=C(/C=C/C(C)=C/C=C/C(C)=C\C(=O)O)C(C)(C)CCC1` [ISOTRETINOIN], the IC50 result is on record as “Not Active”.

For the next test, the target named is T2, Adenosine receptor A1 (Homo sapiens, UniProt P30542).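 Note: radioligand binding assay at the adenosine A1 receptor, with DPCPX serving as the labelled ligand; in other assays of this panel Not Active means under 50% inhibition at 10 µM.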
T2 sequence (P30542 whole entry): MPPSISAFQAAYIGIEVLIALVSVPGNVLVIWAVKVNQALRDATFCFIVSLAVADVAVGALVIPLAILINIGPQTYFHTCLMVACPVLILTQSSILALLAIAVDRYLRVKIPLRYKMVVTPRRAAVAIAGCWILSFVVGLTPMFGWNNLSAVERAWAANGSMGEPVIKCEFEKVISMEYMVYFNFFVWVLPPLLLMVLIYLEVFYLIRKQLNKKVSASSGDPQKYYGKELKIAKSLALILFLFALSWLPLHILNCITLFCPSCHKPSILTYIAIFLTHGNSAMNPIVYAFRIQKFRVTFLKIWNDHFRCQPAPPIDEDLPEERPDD
Experiment: not given
The test is classed as cell membranes, CHO, Membrane. Conditions: cho.
With `CC1=C(/C=C/C(C)=C/C=C/C(C)=C\C(=O)O)C(C)(C)CCC1` [ISOTRETINOIN], the 50% inhibitory concentration (IC50) result is listed as “Not Active”.

Tested on in the next test: not listed separately
The experiment in a line: DRUGMATRIX: Calcium Channel Type L, Dihydropyridine radioligand binding (ligand: [3H] Nitrendipine). The test is classed as cell membranes, Rattus norvegicus, Wistar, Cerebral cortex, Membrane. Conditions: Not Active = under 50% inhibition at 10 µM.
With `CC1=C(/C=C/C(C)=C/C=C/C(C)=C\C(=O)O)C(C)(C)CCC1` [ISOTRETINOIN], the IC50 entry is given as “Not Active” and the Ki entry is recorded as “Not Active”.

A further test concerns the target D(3) dopamine receptor (Homo sapiens, UniProt P35462). The experiment in a line: DRUGMATRIX: Dopamine D3 radioligand binding (ligand: [3H] Spiperone). It counts as cell membranes, CHO, Membrane. Conditions: cho.
In the case of `CC1=C(/C=C/C(C)=C/C=C/C(C)=C\C(=O)O)C(C)(C)CCC1` [ISOTRETINOIN], the IC50 entry was “Not Active”.

Tested on in another test: not listed separately
The experiment in a line: DRUGMATRIX: beta-Lactamase enzyme inhibition (substrate: Nitrocefin). More on the design: species or system Bacillus cereus. Conditions: Not Active = under 50% inhibition at 10 µM.
On to `CC1=C(/C=C/C(C)=C/C=C/C(C)=C\C(=O)O)C(C)(C)CCC1` [ISOTRETINOIN], for which the IC50 entry is “Not Active” and the Ki result is reported as “Not Active”.

In another test the target is T3, Cholecystokinin receptor type A (Homo sapiens, UniProt P32238). Note: in other assays of this panel Not Active means under 50% inhibition at 10 µM.
T3 sequence (P32238 whole entry): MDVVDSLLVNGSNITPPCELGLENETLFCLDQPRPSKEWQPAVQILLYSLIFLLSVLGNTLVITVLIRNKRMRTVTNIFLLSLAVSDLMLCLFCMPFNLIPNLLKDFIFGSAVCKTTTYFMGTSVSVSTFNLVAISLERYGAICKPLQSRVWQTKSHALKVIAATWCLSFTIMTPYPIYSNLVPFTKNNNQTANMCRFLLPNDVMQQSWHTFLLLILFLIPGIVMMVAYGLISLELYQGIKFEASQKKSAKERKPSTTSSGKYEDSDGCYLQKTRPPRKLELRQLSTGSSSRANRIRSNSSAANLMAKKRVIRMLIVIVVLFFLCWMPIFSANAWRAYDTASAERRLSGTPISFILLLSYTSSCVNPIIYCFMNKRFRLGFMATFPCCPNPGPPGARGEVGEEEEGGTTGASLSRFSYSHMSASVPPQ
Experiment: not given
It counts as cell membranes, Membrane. Conditions: 1321-n1.
With `CC1=C(/C=C/C(C)=C/C=C/C(C)=C\C(=O)O)C(C)(C)CCC1` [ISOTRETINOIN], the IC50 entry is given as “Not Active”.

In a further test the target is Beta-2 adrenergic receptor (Homo sapiens, UniProt P07550). The experiment in a line: DRUGMATRIX: Adrenergic beta2 radioligand binding (ligand: [3H] CGP-12177). The test is classed as cell membranes, Membrane. Conditions: cho; Not Active = under 50% inhibition at 10 µM.
Sequence of Beta-2 adrenergic receptor (P07550 whole entry): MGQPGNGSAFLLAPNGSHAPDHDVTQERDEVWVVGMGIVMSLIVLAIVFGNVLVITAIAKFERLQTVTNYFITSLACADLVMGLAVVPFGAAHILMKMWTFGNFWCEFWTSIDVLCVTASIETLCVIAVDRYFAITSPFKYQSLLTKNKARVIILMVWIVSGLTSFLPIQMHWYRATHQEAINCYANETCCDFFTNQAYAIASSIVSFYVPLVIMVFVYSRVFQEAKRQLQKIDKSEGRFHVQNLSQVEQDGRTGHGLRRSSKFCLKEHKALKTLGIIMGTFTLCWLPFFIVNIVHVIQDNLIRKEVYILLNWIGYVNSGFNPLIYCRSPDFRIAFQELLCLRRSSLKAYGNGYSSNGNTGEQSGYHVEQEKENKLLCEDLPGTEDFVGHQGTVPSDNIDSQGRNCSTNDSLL
For the compound `CC1=C(/C=C/C(C)=C/C=C/C(C)=C\C(=O)O)C(C)(C)CCC1` [ISOTRETINOIN], the 50% inhibitory concentration (IC50) entry was “Not Active”.

Tested on in another test: not listed separately
The test can be described thus: DRUGMATRIX: Atrial Natriuretic Factor (ANF) radioligand binding (ligand: [125I] ANF (rat)). The test is classed as cell membranes, Cavia porcellus, Dunkin-Hartley, Adrenal gland, Membrane. To be noted: Not Active = under 50% inhibition at 10 µM.
On to `CC1=C(/C=C/C(C)=C/C=C/C(C)=C\C(=O)O)C(C)(C)CCC1` [ISOTRETINOIN], for which the IC50 entry is given as “Not Active” and the inhibition constant Ki result is given as “Not Active”.

The target of another test is Substance-P receptor (Homo sapiens, UniProt P25103). Note: in other assays of this panel Not Active means under 50% inhibition at 10 µM.
Sequence of Substance-P receptor (P25103 whole entry): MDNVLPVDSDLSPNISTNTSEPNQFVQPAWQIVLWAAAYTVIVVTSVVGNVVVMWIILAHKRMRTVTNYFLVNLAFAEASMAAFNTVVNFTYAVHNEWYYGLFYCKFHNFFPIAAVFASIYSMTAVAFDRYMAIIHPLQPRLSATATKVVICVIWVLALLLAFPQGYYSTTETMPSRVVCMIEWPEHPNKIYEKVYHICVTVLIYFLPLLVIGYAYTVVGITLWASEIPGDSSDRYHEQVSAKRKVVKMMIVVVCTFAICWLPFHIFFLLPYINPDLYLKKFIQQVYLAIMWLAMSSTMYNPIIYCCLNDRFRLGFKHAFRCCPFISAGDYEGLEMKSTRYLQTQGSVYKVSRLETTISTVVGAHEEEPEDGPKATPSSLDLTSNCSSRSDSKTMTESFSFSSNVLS
Experiment: not given
The test is classed as cell membranes, CHO, Membrane. Conditions: cho.
For the compound `CC1=C(/C=C/C(C)=C/C=C/C(C)=C\C(=O)O)C(C)(C)CCC1` [ISOTRETINOIN], the IC50 result is on record as “Not Active”.

In another test the target is 5-hydroxytryptamine receptor 2B (Homo sapiens, UniProt P41595). Note: in other assays of this panel Not Active means under 50% inhibition at 10 µM.
Sequence of 5-hydroxytryptamine receptor 2B (P41595 whole entry): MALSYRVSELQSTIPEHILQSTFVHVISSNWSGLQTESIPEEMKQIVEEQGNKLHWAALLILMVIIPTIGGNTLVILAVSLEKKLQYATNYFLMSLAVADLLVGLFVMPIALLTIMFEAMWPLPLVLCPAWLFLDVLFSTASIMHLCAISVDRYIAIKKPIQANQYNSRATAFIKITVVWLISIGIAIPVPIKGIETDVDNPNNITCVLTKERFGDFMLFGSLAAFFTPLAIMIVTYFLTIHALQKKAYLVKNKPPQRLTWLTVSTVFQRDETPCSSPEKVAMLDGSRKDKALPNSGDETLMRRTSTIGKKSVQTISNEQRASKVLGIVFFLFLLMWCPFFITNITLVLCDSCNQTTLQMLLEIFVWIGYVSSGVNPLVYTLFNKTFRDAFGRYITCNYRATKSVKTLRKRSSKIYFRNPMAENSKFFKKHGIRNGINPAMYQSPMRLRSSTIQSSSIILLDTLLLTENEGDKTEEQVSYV
Experiment: not given
It counts as cell membranes, CHO-K1, Membrane. To be noted: read-out: IC50.
With `CC1=C(/C=C/C(C)=C/C=C/C(C)=C\C(=O)O)C(C)(C)CCC1` [ISOTRETINOIN], the IC50 worked out at 0.848 µM.

The test is the same for the next values; noted with them: read-out: Ki.
Regarding `CC1=C(/C=C/C(C)=C/C=C/C(C)=C\C(=O)O)C(C)(C)CCC1` [ISOTRETINOIN], the inhibitory constant (Ki) stood at 0.54 µM.

The next test deals with Vascular endothelial growth factor receptor 1 (Homo sapiens, UniProt P17948).
Sequence of Vascular endothelial growth factor receptor 1 (P17948 whole entry): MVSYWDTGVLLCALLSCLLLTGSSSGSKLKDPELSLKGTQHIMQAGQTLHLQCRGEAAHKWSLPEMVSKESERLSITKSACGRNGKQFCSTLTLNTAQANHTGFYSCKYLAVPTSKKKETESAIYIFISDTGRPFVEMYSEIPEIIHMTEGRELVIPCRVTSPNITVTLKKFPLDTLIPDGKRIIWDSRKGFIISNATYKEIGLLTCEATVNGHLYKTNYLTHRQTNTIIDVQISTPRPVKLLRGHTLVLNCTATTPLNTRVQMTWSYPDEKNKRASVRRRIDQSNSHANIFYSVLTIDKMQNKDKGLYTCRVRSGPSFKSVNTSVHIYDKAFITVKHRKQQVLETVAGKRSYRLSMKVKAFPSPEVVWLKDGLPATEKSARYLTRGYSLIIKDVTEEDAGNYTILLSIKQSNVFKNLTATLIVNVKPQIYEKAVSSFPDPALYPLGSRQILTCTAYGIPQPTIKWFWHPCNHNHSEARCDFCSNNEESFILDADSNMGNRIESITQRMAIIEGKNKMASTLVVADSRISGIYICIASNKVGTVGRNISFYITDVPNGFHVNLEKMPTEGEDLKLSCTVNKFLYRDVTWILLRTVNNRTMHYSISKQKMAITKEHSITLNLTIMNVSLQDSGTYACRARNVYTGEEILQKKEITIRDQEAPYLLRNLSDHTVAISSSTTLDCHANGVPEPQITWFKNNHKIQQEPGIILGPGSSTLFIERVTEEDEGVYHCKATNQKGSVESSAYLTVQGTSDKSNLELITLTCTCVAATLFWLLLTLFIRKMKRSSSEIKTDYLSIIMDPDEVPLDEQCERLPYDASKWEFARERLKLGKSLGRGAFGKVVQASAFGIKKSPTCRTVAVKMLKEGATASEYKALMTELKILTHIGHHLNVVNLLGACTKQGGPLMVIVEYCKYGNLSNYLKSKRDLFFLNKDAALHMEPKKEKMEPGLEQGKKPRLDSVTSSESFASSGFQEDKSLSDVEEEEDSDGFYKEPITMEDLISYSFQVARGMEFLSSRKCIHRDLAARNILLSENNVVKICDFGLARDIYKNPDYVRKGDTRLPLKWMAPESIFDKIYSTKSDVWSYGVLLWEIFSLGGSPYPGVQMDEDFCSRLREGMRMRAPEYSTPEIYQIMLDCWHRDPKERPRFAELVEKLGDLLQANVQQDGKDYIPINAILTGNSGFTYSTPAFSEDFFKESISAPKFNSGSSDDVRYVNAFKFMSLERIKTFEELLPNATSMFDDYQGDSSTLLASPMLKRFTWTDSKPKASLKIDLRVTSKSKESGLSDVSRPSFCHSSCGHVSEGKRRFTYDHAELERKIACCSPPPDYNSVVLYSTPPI
Experiment: not given
To be noted: huvec. The test is classed as cell-based.
Regarding `CC1=C(/C=C/C(C)=C/C=C/C(C)=C\C(=O)O)C(C)(C)CCC1` [ISOTRETINOIN], the IC50 entry was “Not Active”.

The target of the next test is Mitogen-activated protein kinase 14 (Homo sapiens, UniProt Q16539).
Sequence of Mitogen-activated protein kinase 14 (Q16539 whole entry): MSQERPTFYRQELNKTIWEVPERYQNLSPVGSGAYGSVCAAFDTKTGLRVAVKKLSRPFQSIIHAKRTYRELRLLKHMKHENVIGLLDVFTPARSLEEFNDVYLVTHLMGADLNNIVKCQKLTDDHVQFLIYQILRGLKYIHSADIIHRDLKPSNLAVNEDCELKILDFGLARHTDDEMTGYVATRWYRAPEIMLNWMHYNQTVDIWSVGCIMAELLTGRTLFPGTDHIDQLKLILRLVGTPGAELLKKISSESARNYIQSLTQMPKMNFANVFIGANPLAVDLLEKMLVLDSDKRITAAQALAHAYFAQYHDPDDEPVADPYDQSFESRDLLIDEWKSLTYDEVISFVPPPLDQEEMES
Experiment: not given
More on the design: species or system Escherichia coli. Conditions: read-out: IC50.
Consider `CC1=C(/C=C/C(C)=C/C=C/C(C)=C\C(=O)O)C(C)(C)CCC1` [ISOTRETINOIN], for which the IC50 was 2.53 µM.

The target of a further test is T4, Alpha-2A adrenergic receptor (Homo sapiens, UniProt P08913). Note: in other assays of this panel Not Active means under 50% inhibition at 10 µM.
T4 sequence (P08913 whole entry): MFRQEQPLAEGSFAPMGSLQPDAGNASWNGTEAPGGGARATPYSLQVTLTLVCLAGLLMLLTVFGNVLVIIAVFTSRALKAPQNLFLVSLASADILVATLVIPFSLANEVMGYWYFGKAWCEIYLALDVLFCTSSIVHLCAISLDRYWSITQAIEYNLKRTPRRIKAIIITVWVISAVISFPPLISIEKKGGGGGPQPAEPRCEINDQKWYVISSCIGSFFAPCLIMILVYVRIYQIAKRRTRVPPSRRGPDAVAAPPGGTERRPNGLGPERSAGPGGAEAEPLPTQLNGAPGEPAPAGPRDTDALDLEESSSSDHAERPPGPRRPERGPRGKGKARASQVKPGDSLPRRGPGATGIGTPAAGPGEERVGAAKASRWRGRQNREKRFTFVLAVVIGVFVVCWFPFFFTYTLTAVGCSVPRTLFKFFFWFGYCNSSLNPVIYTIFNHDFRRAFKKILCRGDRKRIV
Experiment: not given
It counts as cell membranes, Sf9, Membrane. Conditions: sf9.
As to `CC1=C(/C=C/C(C)=C/C=C/C(C)=C\C(=O)O)C(C)(C)CCC1` [ISOTRETINOIN], the IC50 entry is reported as “Not Active”.

The target of the next test is C-C chemokine receptor type 5 (Homo sapiens, UniProt P51681). Note: in other assays of this panel Not Active means under 50% inhibition at 10 µM.
Sequence of C-C chemokine receptor type 5 (P51681 whole entry): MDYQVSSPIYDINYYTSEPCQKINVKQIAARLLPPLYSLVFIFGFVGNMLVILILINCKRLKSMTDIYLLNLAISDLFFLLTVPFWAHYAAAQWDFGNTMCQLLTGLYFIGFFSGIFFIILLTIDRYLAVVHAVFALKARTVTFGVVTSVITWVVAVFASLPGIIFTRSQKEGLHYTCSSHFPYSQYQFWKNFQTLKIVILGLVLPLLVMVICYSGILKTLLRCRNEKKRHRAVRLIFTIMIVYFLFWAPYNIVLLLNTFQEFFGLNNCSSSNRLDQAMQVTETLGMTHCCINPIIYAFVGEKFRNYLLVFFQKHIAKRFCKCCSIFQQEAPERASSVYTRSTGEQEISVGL
Experiment: not given
The test is classed as cell membranes, Membrane. Conditions: hek293.
Take `CC1=C(/C=C/C(C)=C/C=C/C(C)=C\C(=O)O)C(C)(C)CCC1` [ISOTRETINOIN]: the IC50 entry is given as “Not Active”.

Another test addresses D(1A) dopamine receptor (Homo sapiens, UniProt P21728). The test can be described thus: DRUGMATRIX: Dopamine D1 radioligand binding (ligand: [3H] SCH-23390). It counts as cell membranes, CHO, Membrane. Conditions: cho; Not Active = under 50% inhibition at 10 µM.
On to `CC1=C(/C=C/C(C)=C/C=C/C(C)=C\C(=O)O)C(C)(C)CCC1` [ISOTRETINOIN], for which the IC50 result is reported as “Not Active”.

A further test addresses Aldo-keto reductase family 1 member B1 (Rattus norvegicus, UniProt P07943).
Experiment: not given
Conditions: not given
It counts as tissue-based, Lens of camera-type eye.
In the case of `CC1=C(/C=C/C(C)=C/C=C/C(C)=C\C(=O)O)C(C)(C)CCC1` [ISOTRETINOIN], the IC50 entry is “Not Active”.

Tested on in another test: not listed separately
The experiment in a line: DRUGMATRIX: Glutamate, AMPA radioligand binding (ligand: [3H] AMPA). The test is classed as cell membranes, Rattus norvegicus, Wistar, Cerebral cortex, Membrane. To be noted: Not Active = under 50% inhibition at 10 µM.
Consider `CC1=C(/C=C/C(C)=C/C=C/C(C)=C\C(=O)O)C(C)(C)CCC1` [ISOTRETINOIN], for which the IC50 result is recorded as “Not Active” and the Ki result is reported as “Not Active”.
